This is an account of results in PubChem BioAssay (NCI).

Structures are written as SMILES. “And” between values parts separate entries of the source, which are not always exact repeats. Equal entries are not always repeated.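 1) Cells in 96-well plates. 2) Compound, 48 h, 5 concentrations. 3) Linear interpolation between surrounding doses. 4) Unreached endpoint = highest concentration. GI50: concentration for 50% inhibition of growth. TGI is the concentration that stops growth completely.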 *1 amine or outer side, *2 acyl side, *3 side chain or, on linkers, in order; H or OH if unused. Where a SMILES comes first, the peptide text is derived from it. Bridges are numbered along the chain shown (N, C = ends). Roman numbers before positions name the chains, in order. [ ]: non-standard residue; d: D form. Actinocin(9to1) = Cc1c2oc3c(C)ccc(C(=O)[*:1])c3nc-2c(C(=O)[*:2])c(N)c1=O; NMeH = CN[CH](Cc1c[nH]cn1)C(=O)O; Sar = CNCC(=O)O Some results are limits rather than exact numbers.

What all share (assay): growth of human tumour cells (NCI), 48 h
Assay [1] has as its system KM12 colon.
For assay [2], the system named is A498 renal.
Assay [3] has as its system HCT-15 colon.
Assay [4] deals with SW-620 colon.
The test system of assay [5] is NCI-H23 lung.
Assay [6] has as its system NCI-H460 lung.
Assay [7] relates to K-562 leukemia.
Assay [8] has as its system ACHN renal.
For assay [9], the system named is M14 melanoma.
Assay [10] relates to T-47D breast.

Regarding `COc1ccccc1OCC(COC(=O)Nc1ccccc1)OC(=O)Nc1ccccc1` (configuration not stated), the TGI in assay [1], in [2], in [3], in assay [4], in assay [5] and in assay [6] was > 100 µM each time. Moreover, the TGI in [7], in [8] and in [9] was > 100 µM in each case.

Take `CCC1(O)CC(OC2CC(N(C)C)C(OC3CC(O)C(OC4OC(C)C(=O)C=C4N)C(C)O3)C(C)O2)c2c(cc3c(c2O)C(=O)c2c(O)cccc2C3=O)C1C(=O)OC` (configuration not stated): the TGI in [1] was 1.13 µM and 1.5 µM; in [3] it was 1.66 µM and 11.8 µM; in assay [4] it was 1.76 µM and 1.2 µM; in assay [5] it was 2.95 µM; in assay [7], 0.262 µM and 1.73 µM; in assay [8], 0.312 µM and 0.895 µM. The TGI in assay [10] was 0.657 µM and 1.79 µM; in [9] it was 0.656 µM. For the same compound, the GI50 in assay [3] was 471 nM; in assay [5], 14.4 nM; in [10], 22.1 nM.

On to `O=C(COc1ccc(OCC(=O)N2C(=O)CC(=O)N(c3ccc(Cl)cc3)C2=S)cc1)N1C(=O)CC(=O)N(c2ccc(Cl)cc2)C1=S`, for which the TGI is 41.6 µM in [1]; > 100 µM in [2]; > 100 µM in [3]; > 100 µM in assay [4]; > 100 µM in assay [5]; > 100 µM in assay [6]. Also, the TGI in assay [7], in assay [8] and in assay [9] was > 100 µM each time.

For the compound `ClC(Cl)(Cl)C1CCOC1n1nnc2ccccc21` (configuration not stated), the TGI in assay [2] was > 100 µM; in assay [5], > 100 µM; in [7], 63.9 µM; in assay [10], > 100 µM; in [9], > 100 µM.

For the compound `COC(=O)[C@H](Cc1c[nH]c2ccccc12)NP(=O)(OCCC#N)OCC1OC(n2cc(C)c(=O)[nH]c2=O)CC1N=[N+]=[N-]` (some centres not stated), the TGI in assay [1], in assay [3], in assay [4], in assay [5], in assay [6] and in [7] was > 100 µM each time. Further, the TGI in assay [8], in assay [10] and in assay [9] was > 100 µM throughout.

As to `Cc1c(CNc2ccc(C(=O)NC(CCCNC(=O)c3ccccc3C(=O)O)C(=O)O)cc2)cnc2nc(N)nc(N)c12` (configuration not stated), the values for the GI50 in assay [2], in [10] and in [9] were > 100000 nM, > 100000 nM and 38.5 nM, respectively. Besides, the TGI in assay [2], in assay [3] and in [4] was > 100 µM in each case.

Regarding `C#C[C@]1(O)CC[C@H]2[C@@H]3CCC4=C/C(=N/NC(=O)c5cccc6c(=O)c7ccccc7[nH]c56)CCC4[C@H]3CC[C@@]21C` (some centres not stated), the TGI in assay [1], in assay [3], in assay [4], in assay [5], in assay [7] and in [8] was > 100 µM throughout. In addition, the TGI in [10] and in assay [9] was > 100 µM throughout.

On to `N#CC(CCN1CCC(Nc2ccccc2)(c2nnnn2C2CCCCC2)CC1)(c1ccccc1)c1ccccc1`, for which the TGI in assay [1], in [2], in assay [3], in assay [4], in assay [5] and in [6] was > 100 µM each time. The TGI in [7], in [8] and in [9] was > 100 µM in each case.

Regarding `CSC(SC)=C(C#N)C(=O)Nc1cccc(Cl)c1`, the TGI in assay [1], in assay [2], in assay [3], in [4], in assay [6] and in [7] was > 100 µM throughout. The TGI in assay [8] and in assay [9] was > 100 µM throughout.

As to `O=c1[nH]c(=O)n(C2CC(O)C(CO)O2)cc1Oc1ccccc1` (configuration not stated), the TGI in assay [1], in assay [3], in assay [5], in [6], in assay [7] and in assay [8] was > 100 µM throughout. Further, the TGI in [10] and in [9] was > 100 µM throughout.

For `Cc1c2oc3c(C)ccc(C(=O)NC4C(=O)NC(C(C)C)C(=O)N5CCCC5C(=O)N(C)CC(=O)N(C)C(Cc5cnc[nH]5)C(=O)OC4C)c3nc-2c(C(=O)NC2C(=O)NC(C(C)C)C(=O)N3CCCC3C(=O)N(C)CC(=O)N(C)C(Cc3cnc[nH]3)C(=O)OC2C)c(N)c1=O` (configuration not stated) (I: TVP[Sar][NMeH] / II: TVP[Sar][NMeH]; ester I:1-I:C, II:1-II:C; linker I:N-II:N via Actinocin(9to1); configuration not given here), the TGI in [1], in assay [3], in assay [4], in assay [5], in [6] and in assay [7] was > 100 µM each time. Also, the TGI in assay [8], in assay [10] and in assay [9] was > 100 µM each time.

In the case of `Nc1cc2c(c3ccccc13)C(CCl)CN2C(=O)c1cc2cc(NC(=O)Nc3ccc4[nH]c(C(=O)N5CC(CCl)c6c5cc(N)c5ccccc65)cc4c3)ccc2[nH]1` (configuration not stated), the TGI in assay [1] is 3.22 µM; in assay [2] it was 0.832 µM; in assay [3] it was > 32.3 µM; in [4], 2.07 µM; in [5] it was 1.02 µM; in assay [6] it was > 100 µM. Moreover, the TGI was > 100 µM in assay [7], 1.34 µM in [10] and 0.644 µM in assay [9].

In the case of `COc1ccccc1-n1c(=O)n(C)c(=O)n1C(C)(C)C`, the TGI in assay [1], in [2], in assay [3], in assay [4], in assay [5] and in assay [6] was > 100 µM each time. The TGI in assay [7], in assay [10] and in [9] was > 100 µM each time.

As to `COC(=O)c1ccccc1C1CN=NC12Cc1c(ccc3c1CCC3)C2=O` (configuration not stated), the TGI in assay [1], in [3], in [4], in assay [5], in assay [6] and in assay [7] was > 100 µM each time. Also, the TGI in assay [8], in assay [10] and in assay [9] was > 100 µM in each case.

Regarding `CC(C(=O)OCc1ccccc1)N(Cc1ccccc1)Cc1ccccc1` (configuration not stated), the TGI in assay [1], in [2], in [3], in assay [4], in assay [5] and in assay [6] was > 100 µM each time. Also, the TGI in [7], in assay [8] and in assay [9] was > 100 µM each time.

Regarding `CC[C@@]1(O)C(=O)OCc2c1cc1n(c2=O)Cc2c-1nc1ccc(O)cc1c2[Si](C)(C)C(C)(C)C`, the TGI in [1] is 0.131 µM; in assay [3], 8.81 µM; in assay [4], 10.9 µM; in [5], 0.0274 µM; in assay [6] it was 0.0263 µM; in assay [7], > 94.5 µM. In [9], the TGI was < 0.0114 µM.

Turning to `CCN1C/C(=C\c2ccc(Cl)cc2)c2nc(N)c(C#N)c(-c3ccc(Cl)cc3)c2C1`, the TGI in [1], in assay [2], in assay [3], in [4], in assay [5] and in assay [6] was > 100 µM each time. Moreover, the TGI in assay [7], in assay [8] and in [9] was > 100 µM in each case.

On to `O=C1COc2cc(N3CCN(c4cccc(C(F)(F)F)c4)CC3)ccc2N1`, for which the TGI in [1], in assay [3], in [4], in [5], in [6] and in [7] was > 100 µM throughout. The TGI in [8], in assay [10] and in assay [9] was > 100 µM in each case.

For `CC(C)(C)C1CCC2c3c([nH]c4ccccc34)C3C(=O)N(c4ccc(C#N)cc4)C(=O)C3C2C1` (configuration not stated), the TGI in assay [2] turned out to be 35.5 µM; in assay [3], 26.2 µM; in assay [4], 39.7 µM; in assay [5] it was 23.6 µM; in assay [6], 17.1 µM; in [7] it was 30.4 µM. Also, the figures for the TGI in [8] and in assay [9] were 65.3 µM and 72.6 µM, respectively.

As to `Cc1nc2cc(F)c(F)cc2[nH]c1=O`, the TGI in assay [1], in [3], in assay [4], in [5], in [6] and in assay [7] was > 100 µM throughout. In addition, the TGI in [8], in assay [10] and in assay [9] was > 100 µM each time.

For the compound `N#C/C(=C/C=C/c1ccco1)C(N)=O`, the TGI in assay [1], in [3], in assay [4], in [6], in assay [8] and in [10] was > 10 µM throughout. In addition, the TGI in assay [9] is > 10 µM.

For `COc1ccc(C#Cn2nnc3ccccc32)cc1`, the TGI in assay [1], in [2], in assay [3], in assay [4], in [5] and in assay [6] was > 100 µM each time. Besides, the TGI in assay [7], in assay [8] and in assay [9] was > 100 µM each time.

In the case of `O=c1c2cc(C(F)(F)F)ccc2sc2c(NCCCNCCO)nc3ccccc3c12`, the GI50 is 1620 nM in [1]; 1610 nM in assay [2]; 1320 nM in assay [3]; 1540 nM in assay [4]; 1580 nM in assay [5]; 1220 nM in assay [6]. Further, the GI50 in assay [8] was 1510 nM. For the same compound, the TGI in [1] stood at 3.17 µM; in assay [2] it was 3.06 µM; in assay [3], 2.77 µM; in [4], 2.98 µM; in assay [5], 3.02 µM; in assay [6], 2.57 µM. Also, the TGI in [8] is 2.86 µM.

As for `CCOC(=O)c1ccc(Nc2nc3ccccc3nc2-c2cccs2)cc1`, the TGI in [1], in [3], in assay [5], in assay [6], in assay [7] and in assay [8] was > 100 µM throughout. In assay [10], this compound came in with a TGI of 56.2 µM.

As for `O=P1(N2CCOCC2)OCCO1`, the TGI in [1], in [2], in assay [3], in assay [4], in assay [5] and in [6] was > 100 µM each time. For the same compound, the TGI in assay [7], in assay [8] and in [9] was > 100 µM throughout.

In the case of `Fc1cccc(F)c1C1SCc2nc3cc(Cl)c(Cl)cc3n21` (configuration not stated), the TGI in assay [1], in assay [3], in assay [4], in assay [5], in assay [6] and in [7] was > 100 µM in each case. Moreover, the TGI in [8], in assay [10] and in assay [9] was > 100 µM each time.

In the case of `CC(C)(C)OC(=O)N/C(C=O)=C\C1CCCCC1`, the TGI in assay [1] was 77.6 µM; in [3], 41.8 µM; in [4] it was > 100 µM; in assay [5], 62 µM; in assay [6], 40.6 µM; in assay [7] it was 46.2 µM. The TGI in assay [8] turned out to be 86.4 µM; in assay [10], 84.5 µM; in assay [9] it was 30.4 µM.

On to `CNc1nnc(CCCCCCCCc2nnc(NC)o2)o1`, for which the TGI in assay [1], in [2], in assay [3], in assay [4], in assay [5] and in assay [6] was > 100 µM in each case. Besides, the TGI in [7], in assay [8] and in [9] was > 100 µM throughout.
